In patent US20230304058A1, “NOVEL 5'CAP ANALOG HAVING CAP2 STRUCTURE AND PREPARATION METHOD THEREFOR” (Shenzhen Rhegen Biotechnology Co., Ltd., priority 2020, published 2023):

How the values were obtained:
[1] = test system: TLR3, TLR7, TLR8 and RIG-1; assay: Intracellular immunogenicity of capped mRNA by RNA immunoprecipitation and quantitative PCR; type: cell-based; settings: relative to ARCA; Human-derived PBMC cells, 5 μg mRNA, Lipofectamine 2000, 24 h
Description: Experimental methods: the intracellular immunoproteins TLR3, TLR7, TLR8 and RIG-1 were immunoprecipitated together with their bound RNAs by RNA immunoprecipitation, and finally these mRNAs were identified by real-time quantitative PCR, and their relative abundance was proportional to their immunogenicity.
The cells were collected by trypsin digestion 24 h later and resuspended in PBS, centrifuged, and collected.
Fixative was added to the cells, and after 15 minutes glycine was added for termination of fixation, followed by centrifugation to collect the cells. Cells were resuspended by adding lysate, incubated on ice at 4° C. for 30 min, centrifuged at 2400 g for 10 min, and the supernatant was collected.
TLR3, TLR7, TLR8 and RIG-1 antibodies (2-10 μg) were added to the supernatant (6-10 mg) followed by gentle incubation at 4° C. for 2 hours. Protein AIG beads (40 μL) were then added to them and incubated gently for 1 h at 4° C.
Centrifuge at 2500 rpm for 30 seconds with precipitated magnetic beads and remove the supernatant. Resuspend the beads in 500 μL of RIP buffer. Wash in RIP buffer a total of three times, followed by one wash in PBS.
Resuspend magnetic beads in TRIzol RNA Extraction Reagent (1 mL) and isolate co-precipitated RNA, and then elute RNA using nuclease-free water (20 μL).
6. Reverse transcribe (RT) the RNA into cDNA and design primers according to the mRNA sequence for quantitative PCR analysis. mRNA immunogenicity is proportional to the number of mRNA copies precipitated by magnetic beads.

[2] = test system: mRNA; assay: mRNA capping rate by RNase H cleavage and LC-MS; type: biochemical; settings: ratio of capped and uncapped mRNA
Text: The mRNA molecules with different Cap structures obtained in Example 1 were subjected to enzymatic cleavage, and the ratio of capped and uncapped mRNA molecules could be determined in a liquid chromatography-mass spectrometry analysis experiment.
1. Concentrate the beads using a magnet, aspirate the supernatant storage solution, and add an equal volume of 0.1 M NaOH +0.05 M NaCl;
2. Aspirate the supernatant and resuspend the beads with an equal volume of 0.1 M NaCl, keep the concentration constant;
3. Anneal mRNA and cleavage tags, configure the following reaction system;
Gradient annealing: 95° C. 5 min
4. Combining cleavage tags with beads • Beads were centrifuged at 15,000 g for 5 min, and the supernatant was removed, then 120 μl of annealed mRNA and tags were added and incubated for 30 min at room temperature, during which time they were gently shaken to ensure adequate binding.
5. Enzyme cleavage using RNase H; • Add 10 μl RNase H and incubate at 37° C. for 3 h. Precipitate the beads with magnet and discard the supernatant. • Add 100 μl washing buffer, mix thoroughly, magnet precipitate for 2 min, and discard the supernatant. Repeat 3 times. • Wash with DI water for 3 times.
6. Hydrolysis with RppH; • Use 10 units RppH in nebuffer 2 to hydrolyze at room temperature for 1 h.
DI water was aspirated, 100 μl of 75% ethanol preheated to 80° C. was added, incubat for 3 min, and magnet precipitat for 3 min. The supernatant was taken, followed by evaporating, and centrifuge for 45 min to a volume of 10 μl. Finally, the sample was resuspended in 50 μl of […] EDTA/1% MeOH and left for LC-MS analysis.
9. the mRNA capping rate of different Cap analogs synthesized was analyzed with LC-MS.

[3] = molecular target: T7 Enzyme Mix (Escherichia phage T7, UniProt P00573); assay: In vitro transcription mRNA synthesis with cap analog, reaction yield; type: biochemical; settings: per ml transcription reaction system; 37° C. for 6 h; LiCl purification
Description: 1. Before synthesizing mRNA, linearize the plasmid with Notl, digested at […] overnight;
2. Extract with DNA template;
React at 37° C. for 6 h. Digest with TURBO DNase for 15 min.
4. Purify the transcription products using LiCl solution and calculate the reaction yields.

T7 Enzyme Mix, sequence (P00573 whole entry): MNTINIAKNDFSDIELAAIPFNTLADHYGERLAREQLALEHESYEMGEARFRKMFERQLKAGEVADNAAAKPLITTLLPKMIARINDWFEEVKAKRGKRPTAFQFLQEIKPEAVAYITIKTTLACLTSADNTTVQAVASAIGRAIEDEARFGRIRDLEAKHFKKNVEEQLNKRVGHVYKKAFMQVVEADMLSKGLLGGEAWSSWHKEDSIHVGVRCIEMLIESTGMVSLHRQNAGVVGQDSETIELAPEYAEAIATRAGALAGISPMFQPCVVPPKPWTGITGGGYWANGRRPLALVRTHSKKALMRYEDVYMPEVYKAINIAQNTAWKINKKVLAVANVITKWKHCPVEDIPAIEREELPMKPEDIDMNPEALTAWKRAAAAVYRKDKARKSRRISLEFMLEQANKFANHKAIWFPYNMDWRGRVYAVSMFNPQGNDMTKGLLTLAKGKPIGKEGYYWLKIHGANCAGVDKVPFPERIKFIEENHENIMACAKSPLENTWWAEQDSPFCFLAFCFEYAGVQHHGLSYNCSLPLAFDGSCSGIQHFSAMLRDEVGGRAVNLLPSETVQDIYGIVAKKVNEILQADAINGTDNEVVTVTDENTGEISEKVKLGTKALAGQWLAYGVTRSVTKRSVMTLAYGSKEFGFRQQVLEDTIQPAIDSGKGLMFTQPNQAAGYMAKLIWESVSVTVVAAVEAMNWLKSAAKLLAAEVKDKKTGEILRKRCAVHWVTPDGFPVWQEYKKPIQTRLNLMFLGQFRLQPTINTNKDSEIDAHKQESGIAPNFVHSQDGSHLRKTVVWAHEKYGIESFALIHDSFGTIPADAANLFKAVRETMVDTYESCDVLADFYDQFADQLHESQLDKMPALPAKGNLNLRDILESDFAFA

Row | SMILES | Intracellular immunogenicity of mRNA when using different Cap structures [1] | mRNA capping rates when using different Cap structures [2] | Mass of final product obtained from 1 ml mRNA synthesis reaction system [3]
1 | CO[C@@H]1[C@H](O)[C@@H](COP(=O)(O)O[C@H]2[C@@H](OC)[C@H](n3cnc4c(=O)[nH]c(N)nc43)O[C@@H]2COP(=O)(O)OP(=O)(O)OP(=O)([O-])OC[C@H]2O[C@@H](n3c[n+](C)c4c(=O)[nH]c(N)nc43)[C@H](O)[C@@H]2O)O[C@H]1n1ccc(N)nc1=O [Cap analog 10, m7G(5′)ppp(5′)(2′OMeG)p(2′OMeC)] | 0.18 | 94.93% | 6.0 mg
2 | CO[C@@H]1[C@H](O)[C@@H](COP(=O)(O)O[C@H]2[C@@H](OC)[C@H](n3cnc4c(N)ncnc43)O[C@@H]2COP(=O)(O)OP(=O)(O)OP(=O)([O-])OC[C@H]2O[C@@H](n3c[n+](C)c4c(=O)[nH]c(N)nc43)[C@H](O)[C@@H]2OC)O[C@H]1n1ccc(N)nc1=O [Cap analog 25, 3-O-Me-m7G(5′)ppp(5′)(2′OMeA)p(2′OMeC)] | 0.29 | 94.8% | 4.1 mg
3 | CO[C@@H]1[C@H](O)[C@@H](COP(=O)(O)O[C@H]2[C@@H](OC)[C@H](n3ccc(=O)[nH]c3=O)O[C@@H]2COP(=O)(O)OP(=O)(O)OP(=O)([O-])OC[C@H]2O[C@@H](n3c[n+](C)c4c(=O)[nH]c(N)nc43)[C@H](O)[C@@H]2O)O[C@H]1n1ccc(=O)[nH]c1=O [Cap analog 16, m7G(5′)ppp(5′)(2′OMeU)p(2′OMeU)] | 0.48 | 94.84% | 4.2 mg
4 | CO[C@@H]1[C@H](O)[C@@H](COP(=O)(O)O[C@H]2[C@@H](OC)[C@H](n3cnc4c(N)ncnc43)O[C@@H]2COP(=O)(O)OP(=O)(O)OP(=O)([O-])OC[C@H]2O[C@@H](n3c[n+](C)c4c(=O)[nH]c(N)nc43)[C@H](O)[C@@H]2OC)O[C@H]1n1cnc2c(N)ncnc21 [Cap analog 21, 3-O-Me-m7G(5′)ppp(5′)(2′OMeA)p(2′OMeA)] | 0.15 | 94.55% | 4.8 mg
5 | CO[C@@H]1[C@H](O)[C@@H](COP(=O)(O)O[C@H]2[C@@H](OC)[C@H](n3ccc(=O)[nH]c3=O)O[C@@H]2COP(=O)(O)OP(=O)(O)OP(=O)([O-])OC[C@H]2O[C@@H](n3c[n+](C)c4c(=O)[nH]c(N)nc43)[C@H](O)[C@@H]2O)O[C@H]1n1ccc(N)nc1=O [Cap analog 12, m7G(5′)ppp(5′)(2′OMeU)p(2′OMeC)] | 0.19 | 94.86% | 4.9 mg
6 | CO[C@@H]1[C@H](O)[C@@H](COP(=O)(O)O[C@H]2[C@@H](OC)[C@H](n3cnc4c(=O)[nH]c(N)nc43)O[C@@H]2COP(=O)(O)OP(=O)(O)OP(=O)([O-])OC[C@H]2O[C@@H](n3c[n+](C)c4c(=O)[nH]c(N)nc43)[C@H](O)[C@@H]2OC)O[C@H]1n1ccc(N)nc1=O [Cap analog 26, 3-O-Me-m7G(5′)ppp(5′)(2′OMeG)p(2′OMeC)] | 0.49 | 94.97% | 4.6 mg
7 | CO[C@@H]1[C@H](O)[C@@H](COP(=O)(O)O[C@H]2[C@@H](OC)[C@H](n3ccc(N)nc3=O)O[C@@H]2COP(=O)(O)OP(=O)(O)OP(=O)([O-])OC[C@H]2O[C@@H](n3c[n+](C)c4c(=O)[nH]c(N)nc43)[C@H](O)[C@@H]2O)O[C@H]1n1ccc(=O)[nH]c1=O [Cap analog 15, m7G(5′)ppp(5′)(2′OMeC)p(2′OMeU)] | 0.34 | 94.83% | 4.6 mg
8 | CO[C@@H]1[C@H](OP(=O)(O)OC[C@H]2O[C@@H](n3cnc4c(N)ncnc43)[C@H](OC)[C@@H]2O)[C@@H](COP(=O)(O)OP(=O)(O)OP(=O)([O-])OC[C@H]2O[C@@H](n3c[n+](C)c4c(=O)[nH]c(N)nc43)[C@H](O)[C@@H]2OC)O[C@H]1n1ccc(N)nc1=O [Cap analog 23, 3-O-Me-m7G(5′)ppp(5′)(2′OMeC)p(2′OMeA)] | 0.41 | 94.65% | 4.5 mg
9 | CO[C@@H]1[C@H](O)[C@@H](COP(=O)(O)O[C@H]2[C@@H](OC)[C@H](n3cnc4c(N)ncnc43)O[C@@H]2COP(=O)(O)OP(=O)(O)OP(=O)([O-])OC[C@H]2O[C@@H](n3c[n+](C)c4c(=O)[nH]c(N)nc43)[C@H](O)[C@@H]2O)O[C@H]1n1ccc(=O)[nH]c1=O [Cap analog 13, m7G(5′)ppp(5′)(2′OMeA)p(2′OMeU)] | 0.23 | 94.77% | 5.1 mg
10 | CO[C@@H]1[C@H](O)[C@@H](COP(=O)(O)O[C@H]2[C@@H](OC)[C@H](n3ccc(N)nc3=O)O[C@@H]2COP(=O)(O)OP(=O)(O)OP(=O)([O-])OC[C@H]2O[C@@H](n3c[n+](C)c4c(=O)[nH]c(N)nc43)[C@H](O)[C@@H]2OC)O[C@H]1n1ccc(N)nc1=O [Cap analog 27, 3-O-Me-m7G(5′)ppp(5′)(2′OMeC)p(2′OMeC)] | 0.09 | 94.88% | 4.7 mg
11 | CO[C@@H]1[C@H](OP(=O)(O)OC[C@H]2O[C@@H](n3cnc4c(=O)[nH]c(N)nc43)[C@H](OC)[C@@H]2O)[C@@H](COP(=O)(O)OP(=O)(O)OP(=O)([O-])OC[C@H]2O[C@@H](n3c[n+](C)c4c(=O)[nH]c(N)nc43)[C@H](O)[C@@H]2O)O[C@H]1n1ccc(=O)[nH]c1=O [Cap analog 4, m7G(5′)ppp(5′)(2′OMeU)p(2′OMeG)] | 0.48 | 94.72% | 4.7 mg
12 | CO[C@@H]1[C@H](O)[C@@H](COP(=O)(O)O[C@H]2[C@@H](OC)[C@H](n3cnc4c(N)ncnc43)O[C@@H]2COP(=O)(O)OP(=O)(O)OP(=O)([O-])OC[C@H]2O[C@@H](n3c[n+](C)c4c(=O)[nH]c(N)nc43)[C@H](O)[C@@H]2OC)O[C@H]1n1ccc(=O)[nH]c1=O [Cap analog 29, 3-O-Me-m7G(5′)ppp(5′)(2′OMeA)p(2′OMeU)] | 0.27 | 94.93% | 5.3 mg
13 | CO[C@@H]1[C@H](O)[C@@H](COP(=O)(O)O[C@H]2[C@@H](OC)[C@H](n3ccc(=O)[nH]c3=O)O[C@@H]2COP(=O)(O)OP(=O)(O)OP(=O)([O-])OC[C@H]2O[C@@H](n3c[n+](C)c4c(=O)[nH]c(N)nc43)[C@H](O)[C@@H]2OC)O[C@H]1n1ccc(=O)[nH]c1=O [Cap analog 32, 3-O-Me-m7G(5′)ppp(5′)(2′OMeU)p(2′OMeU)] | 0.3 | 94.66% | 4.3 mg
14 | CO[C@@H]1[C@H](OP(=O)(O)OC[C@H]2O[C@@H](n3cnc4c(N)ncnc43)[C@H](OC)[C@@H]2O)[C@@H](COP(=O)(O)OP(=O)(O)OP(=O)([O-])OC[C@H]2O[C@@H](n3c[n+](C)c4c(=O)[nH]c(N)nc43)[C@H](O)[C@@H]2O)O[C@H]1n1ccc(=O)[nH]c1=O [Cap analog 8, m7G(5′)ppp(5′)(2′OMeU)p(2′OMeA)] | 0.31 | 94.79% | 5.3 mg
